Patent publication US5053215A, “NMR-assayable ligand-labelled trifluorothymidine containing composition and method for diagnosis of HSV infection” (priority 1988, dated 1991)
Entries after “also recorded” stand apart in the source; their conditions may differ.

Tests used:
[1] = CCl4 induced hepatitis: Alanine Amino Transferase (ALT), Blood Urea Nitrogen (BUN) and histology; format: in vivo, CBA/J mice
Description: Preliminary experiments were then carried out to determine the average ALT levels of HSV-2 infected mice on day 3 at the time higher levels of TFT were found in the liver. […] A dose response curve of CCl4 hepatitis had shown that between 0.015-0.02 ml/kg CCl4 would lead to ALT levels of 500-5000 IU/ml blood. […]

HSV infected cells = settings: in vitro, cited from earlier work; for Degradation of phosphorylated drug back to parent compound: HSV infected cells, Smee et al
[2] = system: optic nerve and chiasm of rats after intraocular inoculation of HSV-1; settings: rat, in vivo; cited from earlier work
[3] = system: murine hepatitis virus (MHV-A59); design: species or system CBA/J mice; MHV-A59; settings: mouse, in vivo
From the text: Symbols used: =HSV-2; O=MHV-A 59; Δ=uninfected.

[4] = system: livers of mice infected with HSV-2; experiment: TFT (19F) concentration in mouse livers by 19F NMR spectroscopy after i.v. injection; design: species or system CBA/J mice; HSV-2 (333 strain); settings: in vivo, iv, 100 mg/kg, 3.5 h
Description: (§1) ^19 F assay was carried out in a Nicolet-GE NT-300 NMR spectrometer, using standard techniques with a simple one-pulse sequence. The field was 7.05 Tesla (T) and the frequency was 282 megahertz. Depending upon the volume of the sample available, it was placed :n either a 5 mm or 12 mm diameter tube, which was usually not spun. Both whole liver and liver homogenates were placed in 2 ml of a 2:1 v/v mixture of D2 O: methanol which inactivated HSV, permitted field homogeneity to be optimized and provided field-frequency lock for time averaging. A five-second cycle time was used with a tip angle of 60°. Sweep width was 5000 Hz and 64K data points were collected. Concentration of ^19 F in a sample was evaluated by comparing the electronically integrated area of the resonance peak, after application of 10 Hz line broadening and Fourier transformation of the free induction delays using a 1280 computer, to that of standards containing 10, 50, or 100 μg/ml TFT Instrumental reproducibility of the calculated areas was checked by comparing the integral for the […] standard to that calculated from a scale setting obtained with a 100 μg/ml standard. […]
(§2) In FIG. 3, representative ^19 F NMR spectra was measured with the Nicolet GE NT-300 NMR spectrometer at a field strength of 7.05 T, using a 2:1 v/v D2 O/methanol mixture as a field-frequency lock. […]

[5] = as above; design: species or system CBA/J mice; HSV-2 (333 strain); settings: in vivo, iv, 100 mg/kg, TFT concentration in liver homogenate by 19F NMR (FIG. 3B)
Description: as §1, §2

[6] = system: livers of mice infected with HSV-2; experiment: TFT concentration in livers of HSV-2 infected mice (with uninfected and CCl4 hepatitis controls) by HPLC after i.v. injection
Description: (§3) For comparison, TFT levels were measured in the livers of uninfected mice and mice with carbon tetrachloride (CCl4) induced hepatitis.
(§4) HSV-2 (333 strain) was grown and titered in Vero cells as previously described [Rand -t al, J. Med. Virol., Vol. 20, pp. 1-8 (1986).
(§5) The following strains of mice were obtained from the National Cancer Institute: Balb/c, CBA/J, A/HeN, A/J, P/N, and DBA/2N.
(§6) Carbon tetrachloride was dissolved in olive oil for injection. Trifluorothymidine was assayed by high pressure liquid chromatography (HPLC).
(§7) 4-6 week old, 18-23 gm, CBA/J mice were injected intraperitoneally (i.p.) with 1.5 ml of HSV-2 (2-4×10^6 pfu/ml). […] Three days after infection, mice were anesthetized with a 3:1 mixture of 100 mg/ml ketamine HCl:20 mg/ml Xylazine at a dose of 0.2 ml/kg. The jugular vein was surgically exposed, and mice were injected intravenously with 100 or 160 mg/kg of TFT in the appropriate volume of a 20 mg/ml solution in Phosphate Buffered Saline (PBS) pH 7.4. Mice were sacrificed at 45 minutes, 2 hours, 2.5 and 3.5 hours after I.V. injection of TFT. The livers were immediately excised and frozen at -70° C. until they could be studied. For viral titration and measurement of TFT, 1.5 ml of phosphate buffered saline pH 7.4 was mixed with 1 g of liver and the mixture homogenized (10 strokes using a Pyrex Ten Broeck tissue grinder), followed by sonication ×4 for 30 sec. in a Fisher 300 sonic dismembrator at a relative output of 0 55; 0.8 ml of the liver homogenate was mixed with an equal volume of methanol, vortexed extensively and then centrifuged at 15,000×g for 15 minutes. The supernatant was analyzed by HPLC for TFT and the results expressed per gram of liver after correction for dilution. Prior to sonication, 0.5 ml of the liver homogenate was serially diluted in serum free tissue culture media and titrated in triplicate in Vero cells as previously described [Rand et al, supra]. In some experiments the clarified supernatant that had been mixed with methanol as described above was placed in a 5 mm NMR tube and ^19 F content measured by NMR spectroscopy. In other experiments the entire liver was excised, and placed in a 12 mm NMR tube and the ^19 F directly analyzed by NMR spectroscopy.
(§8) Prior to i.p. injection of CCl4 in olive oil, 0.2 ml of blood was collected from each of a group of 5 mice. Twenty-four hours after i.p. injection of 0.1 ml/kg CCl4 in olive oil, blood was collected again, and both sets were analyzed for Alanine Amino Transferase (ALT) and Blood Urea Nitrogen (BUN). For ALT, 2 μl serum was analyzed in duplicate with a Technicon RA 1000 and for BUN 10 μl duplicate samples were analyzed with a Beckman Astra 8. Mice were sacrificed by cervical dislocation and the liver and kidney fixed in 10% formalin, stained with hematoxylin and eosin and examined histologically.
(§9) Therefore, data were analyzed by the non-parametric Mann-Whitney U test.
(§10) In FIG. 1, 1 HSV-2 infected, uninfected and CCl4 treated 4-6 week old CBA/J mice were injected via the jugular vein with 100 mg/kg TFT, and sacrificed at 45 minutes, 2 hours or 3.5 hours later. […] Most of the experiments were done on day 3 after HSV infection; day 2 after infection was not systematically studied, and is presented only for comparison.
(§11) In FIG. 2, the relationship between HSV-2 titer/g liver and TFT concentration/g liver measured by HPLC on day 3 after HSV-2 infection, 2 h (O's) and 2.5 h ( 's) following i.v. administration of TFT. Two separate experiments are shown. Data were analyzed by linear regression.

in vivo = settings: mouse, in vivo, iv
Description: as §3, §4, §5, §6, §7, §8, §9, §10, §11

[7] = TFT blood levels after i.v. injection; format: in vivo, CBA/J mice
Description: as §6

HSV TK = settings: cited from earlier work
[8] = in vivo; cited from earlier work
HSV infected tissues = settings: cited from earlier work
[9] = mouse, in vivo, iv, 160 mg/kg, 2 h

SMILES: ClC(Cl)(Cl)Cl [CCl4, carbon tetrachloride]
- ALT levels in blood after CCl4 (0.015-0.02 ml/kg), dose response curve ([1]; 0.015-0.02 ml/kg CCl4): 500-5000 IU/ml blood
- Renal function (BUN) after CCl4 ([1]; 0.2 ml/kg i.p.): no significant alternation in renal function
- ALT levels in blood after CCl4 (0.2 ml/kg) ([1]; 0.2 ml/kg in olive oil i.p., a day later, typical range): 20,000-30,000 IU/ml
- Hepatic necrosis after CCl4 ([1]; 0.2 ml/kg in olive oil i.p., a day later / histology): overwhelming hepatic necrosis; also recorded: massive
- ALT after CCl4 (0.02 ml/kg) ([1]; 24 h post treatment, 0.02 ml/kg, N = 12, after receiving 100 mg/kg TFT, Mean ± SD): 18950 ± 7526 IU/L
- BUN after CCl4 ([1]; 24 h post treatment, 0.2 ml/kg i.p., N = 5, Mean ± SD, pre treatment 10.4 + 2.7): 6.4 ± 2.3 mg/dL
- ALT after CCl4 (0.2 ml/kg) ([1]; 24 h post treatment, 0.2 ml/kg i.p., N = 5, Mean ± SD, pre treatment 28.2 ± 13.8): 28112 ± 6086 IU/L
- Hepatic necrosis after low dose CCl4, histology ([1]; dose printed as 0.0 ml/kg): more localized and less extensive

SMILES: Nc1nc2c(ncn2COCCO)c(=O)[nH]1 [DHPG, 9-(2-Hydroxyethyoxymethyl) guanine]
- Degradation of phosphorylated drug back to parent compound (HSV infected cells): did not hydrolyze back to the parent compound as readily
- Intracellular accumulation in HSV infected cells (HSV infected cells): intracellular accumulation; also recorded: accumulated in a similar manner

SMILES: Cc1cn([C@@H]2O[C@H](CO)[C@@H](O)[C@@H]2F)c(=O)[nH]c1=O [FMAU, 2' fluoro-5-methyl-1-β-D-arabinosyluracil]
- Accumulation of FMAU in choroid plexus and cells lining the ventricular walls [2]: non-specific accumulation
- Concentration of FMAU in optic nerve and chiasm [2]: specific concentration of the drug in the optic nerve and chiasm

SMILES: O=c1[nH]c(=O)n([C@H]2C[C@H](O)[C@@H](CO)O2)cc1C(F)(F)F [TFT, trifluorothymidine]
- TFT level vs MHV titer [3]: No relationship between MHV titer and TFT level
- Intracellular accumulation in HSV infected cells (HSV infected cells): intracellular accumulation; also recorded: accumulate in tissue culture
- TFT concentration in liver homogenate by 19F NMR (FIG. 3B) [4]: 11 μg/g liver
- concentration at 3.5 h [5]: 11000 ng/g
- TFT levels in livers of HSV-2 infected mice, positive control in MHV experiment ([6]; 2 HSV-2 infected mice with titers of 10^6 pfu HSV/g liver (FIG. 4)): high levels of TFT in liver; also recorded: strikingly elevated levels
- Accumulation of TFT in liver after i.p. injection ([6]; i.p. injection, HSV infected mice): impossible to demonstrate accumulation of TFT in the liver
- TFT levels in livers of HSV-2 infected mice vs uninfected or CCl4 treated mice ([6]; i.v. injection of TFT, 2 and 3.5 hours in FIG. 1 (100 mg/kg), 100 mg/kg): significantly higher levels of TFT in their livers at both 2 and 3.5 hours; also recorded: highly elevated levels of TFT
- Mean conc. of TFT in liver, infected mice [6, 9]: 110.1 μg/g liver
- Mean conc. of TFT in liver, uninfected mice [6, 9]: 14.7 μg/g liver
- TFT levels in liver on day 2 after HSV-2 infection ([6]; viral titers low (10^3 /g liver)): higher levels of TFT could be found in the livers of HSV-2 infected mice on day 2 as well as day 3
- concentration at 2 h (in vivo; 100 mg/kg, TFT concentration in liver by HPLC, CCl4 hepatitis): < 1000 ng/g
- concentration at 2 h (in vivo; 160 mg/kg, Mean conc. of TFT in liver, infected mice): 110000 ng/g
- concentration at 2 h (in vivo; 160 mg/kg, Mean conc. of TFT in liver, uninfected mice): 14700 ng/g
- Blood levels of TFT at 45 minutes, difference among groups ([7]; 100 mg/kg i.v., HSV-2 infected, uninfected, CCl4 treated): essentially no difference in blood levels
- Blood levels of TFT at 2 hours ([7]; i.v. injection, 2 hours, any of the groups): no detectable drug at 2 hours in the blood; also recorded: no measurable blood levels
- Phosphorylation by HSV TK (HSV TK): phosphorylated by the HSV TK
- Blood brain barrier crossing [8]: crosses the blood brain barrier poorly

SMILES: Nc1nc2c(ncn2COCCO)c(=O)[nH]1 [acyclovir]
- Degradation of phosphorylated drug back to parent compound (HSV infected cells): rapidly degraded back to acyclovir, and diffused out of the cell
- Intracellular accumulation in HSV infected cells (HSV infected cells): intracellular accumulation; also recorded: accumulate in tissue culture; also recorded: accumulated in the form of phosphorylated intermediates
- Selective accumulation of acyclovir in HSV infected tissues in vivo (HSV infected tissues; Price et al): unable to demonstrate any selective accumulation
- Duration of elevated plasma levels of acyclovir (HSV infected tissues; s.c. injection, Biron et al, "remained reasonably elevated"): ≥ 2 h
- Phosphorylation by HSV TK (HSV TK): phosphorylated by the HSV TK
